From ChEMBL document CHEMBL1127145, “Syntheses of novel 1-aminocyclopropane-1-carboxylic acid (ACC)-containing -lactams” (Bioorg Med Chem Lett, 1993)
The source made the active and inactive calls. The rule behind the calls is not given here.

Molecular target: Beta-lactamase TEM (Escherichia coli) (UniProt P62593)
Assay: Inhibitory activity towards beta-lactamase enzyme at 50 mM concentration or higher; Weak inhibitor

Chain of Beta-lactamase TEM (Escherichia coli) (P62593 whole entry): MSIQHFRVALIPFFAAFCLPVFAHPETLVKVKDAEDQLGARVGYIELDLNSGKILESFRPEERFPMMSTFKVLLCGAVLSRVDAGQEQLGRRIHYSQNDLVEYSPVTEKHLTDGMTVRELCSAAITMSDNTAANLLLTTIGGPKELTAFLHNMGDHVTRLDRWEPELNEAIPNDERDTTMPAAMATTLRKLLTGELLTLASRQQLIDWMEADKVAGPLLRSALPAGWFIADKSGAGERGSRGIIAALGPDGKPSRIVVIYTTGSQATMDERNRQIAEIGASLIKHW

Activity: inactive
Compound: CC(=O)[C@@H]1[C@H](NC(=O)c2ccccc2)C(=O)N1C1(C(=O)O)CC1
